In PubChem BioAssay (NCI):
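Five compound concentrations were applied to cells in 96-well plates for 48 hours; endpoints were derived by simple linear interpolation of the resulting dose-response curve. At the TGI there is no net growth.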

Tests used:
Test in all cases: DTP human tumour cell line panel, 48 h
[1] = system: NCI-H522 lung
[2] = system: SN12C renal
[3] = system: NCI-H226 lung
[4] = system: COLO 205 colon
[5] = system: SK-OV-3 ovarian
[6] = system: OVCAR-8 ovarian
[7] = system: UACC-62 melanoma
[8] = system: SF-539 CNS
[9] = system: ACHN renal
[10] = system: HCT-15 colon
[11] = system: UACC-257 melanoma
[12] = system: HOP-92 NSCLC
[13] = system: M19-MEL melanoma
[14] = system: OVCAR-3 ovarian
[15] = system: KM20L2 colon
[16] = system: HT29 colon
[17] = system: HCT-116 colon
[18] = system: SW-620 colon
[19] = system: CAKI-1 renal
[20] = system: DMS 114 small cell lung
[21] = system: SNB-78 CNS
[22] = system: EKVX NSCLC
[23] = system: DMS 273 small cell lung
[24] = system: OVCAR-4 ovarian
[25] = system: HCC-2998 colon
[26] = system: MALME-3M melanoma
[27] = system: TK-10 renal
[28] = system: LXFL 529 NSCLC
[29] = system: OVCAR-5 ovarian
[30] = system: IGROV1 ovarian
[31] = system: SK-MEL-28 melanoma
[32] = system: SNB-75 CNS
[33] = system: SF-295 CNS
[34] = system: U251 CNS
[35] = system: SK-MEL-5 melanoma
[36] = system: UO-31 renal
[37] = system: A549 NSCLC
[38] = system: NCI-H23 lung
[39] = system: 786-0 renal
[40] = system: SK-MEL-2 melanoma
[41] = system: RXF 393 renal
[42] = system: KM12 colon
[43] = system: SF-268 CNS
[44] = system: SNB-19 CNS
[45] = system: HS 578T breast
[46] = system: A498 renal
[47] = system: HL-60(TB) leukemia
[48] = system: DU-145 prostate
[49] = system: PC-3 prostate
[50] = system: NCI/ADR-RES ovarian
[51] = system: MDA-MB-435
[52] = system: HOP-62 NSCLC
[53] = system: LOX IMVI melanoma
[54] = system: MCF7 breast
[55] = system: NCI-H460 lung
[56] = system: BT-549 breast
[57] = system: MDA-N
[58] = system: CCRF-CEM leukemia
[59] = system: K-562 leukemia
[60] = system: SR leukemia
[61] = system: M14 melanoma
[62] = system: T-47D breast
[63] = system: MOLT-4 leukemia
[64] = system: MDA-MB-231 breast
[65] = system: RPMI-8226 leukemia

O=C1C=CC=C/C1=C1/SC(c2ccccc2)=C(O)N1c1ccccc1
TGI [1]: > 100 µM
TGI [2]: > 100 µM
TGI [3]: > 100 µM
TGI [4]: > 100 µM
TGI [5]: > 100 µM
TGI [6]: > 100 µM
TGI [7]: > 100 µM
TGI [8]: > 100 µM
TGI [9]: > 100 µM
TGI [10]: > 100 µM
TGI [11]: > 100 µM
TGI [12]: > 100 µM
TGI [13]: > 100 µM
TGI [14]: > 100 µM
TGI [15]: > 100 µM
TGI [16]: > 100 µM
TGI [17]: > 100 µM
TGI [18]: > 100 µM
TGI [19]: > 100 µM
TGI [20]: > 100 µM
TGI [21]: > 100 µM
TGI [22]: > 100 µM
TGI [23]: > 100 µM
TGI [24]: > 100 µM
TGI [25]: > 100 µM
TGI [26]: > 100 µM
TGI [27]: > 100 µM
TGI [28]: > 100 µM
TGI [29]: > 100 µM
TGI [30]: > 100 µM
TGI [31]: > 100 µM
TGI [32]: > 100 µM
TGI [33]: > 100 µM
TGI [34]: > 100 µM
TGI [35]: > 100 µM
TGI [36]: > 100 µM
TGI [37]: > 100 µM
TGI [38]: > 100 µM
TGI [39]: > 100 µM
TGI [40]: > 100 µM
TGI [41]: > 100 µM
TGI [42]: > 100 µM
TGI [43]: > 100 µM
TGI [44]: > 100 µM

CSc1ccn(C2CC(F)C(CO)O2)c(=O)n1 (stereo unspecified)
TGI [1]: > 100 µM
TGI [45]: > 100 µM
TGI [2]: > 100 µM
TGI [3]: > 100 µM
TGI [46]: > 100 µM
TGI [47]: > 100 µM
TGI [4]: > 100 µM
TGI [5]: > 100 µM
TGI [6]: > 100 µM
TGI [7]: > 100 µM
TGI [8]: > 100 µM
TGI [9]: > 100 µM
TGI [10]: > 100 µM
TGI [11]: > 100 µM
TGI [12]: > 100 µM
TGI [14]: > 100 µM
TGI [48]: > 100 µM
TGI [16]: > 100 µM
TGI [17]: > 100 µM
TGI [18]: > 100 µM
TGI [49]: > 100 µM
TGI [19]: > 100 µM
TGI [50]: > 100 µM
TGI [22]: > 100 µM
TGI [24]: > 100 µM
TGI [51]: > 100 µM
TGI [25]: > 100 µM
TGI [26]: > 100 µM
TGI [52]: > 100 µM
TGI [53]: > 100 µM
TGI [27]: > 100 µM
TGI [54]: > 100 µM
TGI [29]: > 100 µM
TGI [30]: > 100 µM
TGI [55]: > 100 µM
TGI [32]: > 100 µM
TGI [33]: > 100 µM
TGI [34]: > 100 µM
TGI [35]: > 100 µM
TGI [36]: > 100 µM
TGI [37]: > 100 µM
TGI [38]: > 100 µM
TGI [56]: > 100 µM
TGI [39]: > 100 µM
TGI [40]: > 100 µM
TGI [57]: > 100 µM
TGI [41]: > 100 µM
TGI [58]: > 100 µM
TGI [59]: > 100 µM
TGI [60]: > 100 µM
TGI [42]: > 100 µM
TGI [43]: > 100 µM
TGI [61]: > 100 µM
TGI [44]: > 100 µM
TGI [62]: > 100 µM
TGI [63]: > 100 µM
TGI [64]: > 100 µM

CCCCCCCCCCCCCCC(O)C[N+](C)(CCO)CCO (stereo unspecified)
TGI [1]: 5.03 µM
TGI [45]: 7.87 µM
TGI [2]: 21.5 µM
TGI [3]: 5.63 µM
TGI [46]: 22.6 µM
TGI [47]: 2.71 µM
TGI [4]: 3.19 µM
TGI [5]: 30.7 µM
TGI [6]: 18.8 µM
TGI [7]: 11.1 µM
TGI [8]: 7.21 µM
TGI [9]: 21.7 µM
TGI [10]: 22 µM
TGI [11]: 26.7 µM
TGI [12]: 5.76 µM
TGI [14]: 12.1 µM
TGI [48]: 23.6 µM
TGI [16]: 12.1 µM
TGI [17]: 23.8 µM
TGI [18]: 23.7 µM
TGI [49]: 4.31 µM
TGI [19]: 9.59 µM
TGI [50]: 49 µM
TGI [22]: 42.6 µM
TGI [24]: 17 µM
TGI [51]: 21.3 µM
TGI [25]: 3.51 µM
TGI [26]: 7.54 µM
TGI [52]: 10.3 µM
TGI [53]: 4.66 µM
TGI [27]: 4.16 µM
TGI [54]: 36.5 µM
TGI [29]: 7.92 µM
TGI [30]: 3.14 µM
TGI [55]: 6.56 µM
TGI [31]: 22.4 µM
TGI [32]: 2.85 µM
TGI [33]: 9.96 µM
TGI [34]: 2.89 µM
TGI [35]: 16.9 µM
TGI [36]: 17 µM
TGI [37]: 34.3 µM
TGI [38]: 20.7 µM
TGI [56]: 10.8 µM
TGI [39]: 4.78 µM
TGI [40]: 27.5 µM
TGI [57]: 22.8 µM
TGI [41]: 4.36 µM
TGI [65]: 5.52 µM
TGI [58]: 9.82 µM
TGI [59]: > 38.1 µM
TGI [60]: 10.1 µM
TGI [42]: 4.23 µM
TGI [43]: 5.16 µM
TGI [61]: 3.66 µM
TGI [44]: 3.39 µM
TGI [62]: 30.6 µM
TGI [63]: 9.13 µM
TGI [64]: 3.76 µM

Cc1cc(S(=O)(=O)Nc2nc3ccccc3nc2-c2ccc(Cl)cc2)c(S)cc1Cl
TGI [1]: 28.3 µM
TGI [45]: 73 µM
TGI [2]: 56.7 µM
TGI [3]: 47.9 µM
TGI [46]: 30.7 µM
TGI [47]: 44.1 µM
TGI [4]: 30.2 µM
TGI [5]: 31.1 µM
TGI [6]: 51.6 µM
TGI [7]: 25.4 µM
TGI [8]: 34 µM
TGI [9]: 34.9 µM
TGI [10]: 42.2 µM
TGI [11]: 44.2 µM
TGI [12]: 46.9 µM
TGI [14]: 29.9 µM
TGI [48]: 29.9 µM
TGI [16]: 31.4 µM
TGI [17]: 40.5 µM
TGI [49]: 34.3 µM
TGI [19]: 36.8 µM
TGI [50]: 36.9 µM
TGI [22]: 29.1 µM
TGI [24]: 28.2 µM
TGI [51]: 34.5 µM
TGI [25]: 29.1 µM
TGI [26]: 41.4 µM
TGI [52]: 46.7 µM
TGI [27]: 63.7 µM
TGI [54]: 34.1 µM
TGI [29]: 33.8 µM
TGI [30]: 24.9 µM
TGI [55]: 29.4 µM
TGI [31]: 31 µM
TGI [33]: 35 µM
TGI [34]: 34 µM
TGI [35]: 27 µM
TGI [36]: 30.1 µM
TGI [37]: 33.6 µM
TGI [38]: 33.4 µM
TGI [56]: 50.6 µM
TGI [39]: 43.5 µM
TGI [40]: 29.2 µM
TGI [57]: 35.6 µM
TGI [41]: 46.6 µM
TGI [65]: 68.5 µM
TGI [58]: 58.1 µM
TGI [59]: 70.6 µM
TGI [60]: 37.8 µM
TGI [42]: 35.4 µM
TGI [43]: 35.3 µM
TGI [61]: 39.5 µM
TGI [44]: 37 µM
TGI [62]: 32.8 µM
TGI [63]: 42.2 µM
TGI [64]: 54 µM
